Test results as given in patent publication US12264170B2, “Antimicrobial organosilanes” (TOPIKOS SCIENTIFIC, INC., priority 2019, dated 2025).
Values after ≈ are worked out from the molar mass of the structure shown.

Tests used:
[1] = system: Cladosporium herbarum ATCC MYA-4682; assay: MIC microdilution assay; assay type: cell-based; conditions: C. herbarum ATCC MYA-4682; RPMI media; 25±2° C. 3 to 5 days; two values given
Experimental: (§1) Strain numbers starting with “ATCC” were acquired from the American Type Culture Collection (Manassas, VA), while strain numbers starting with “CDC” were acquired from the Centers for Disease Control and Prevention (Atlanta, GA). All strains were maintained as −80° C. frozen glycerol stocks. S. aureus and P. aeruginosa were grown overnight on Tryptic Soy Agar (TSA) plates at 35±2° C., ambient atmosphere, while S. pyogenes was grown overnight on TSA+5% defibrinated sheep blood at 35±2° C., 5% CO2. All fungal species (i.e. C. albicans, C. auris and C. herbarum) were grown on Sabouraud Dextrose Agar (SDA) plates. C. herbarum was grown at 25±2° C. for 5 to 7 days, while all other fungal strains were grown at 35±2° C. overnight.
Test articles Compound 2 (batch #2G13A0.368) and Compound 23 (batch #2G17A0.372) were received and stored at 4° C. The antibiotic Tobramycin and antifungal Amphotericin B were used as quality control (QC) compounds for the MIC assay. […]
All bacterial-strain MIC 96-well plates were incubated at 35±2° C. for 18 to 20 hours, while all Candida MIC 96-well plates were incubated at 35±2° C. for 24 to 48 hours. […] After incubation, the 96-well plates were examined visually and on a spectrophotometer at absorbance OD650. […]

[2] = system: Staphylococcus aureus ATCC 33591; assay: MIC microdilution assay; assay type: cell-based; conditions: S. aureus ATCC 33591; CAMHB; 35±2° C. 18 to 20 hours; two values given
Experimental: as §1
(§2) Test articles Compound 2 (batch #2G13A0.368) and Compound 23 (batch #2G17A0.372) were received and stored at 4° C. The antibiotic Tobramycin and antifungal Amphotericin B were used as quality control (QC) compounds for the MIC assay. Stock solutions of 3.2 mg/mL Tobramycin (Sigma-Aldrich, cat #T1783-500MG) and 3.2 mg/mL Amphotericin B (CP Lab Chemicals, cat #TOK-A007-1G) were prepared in sterile ultrapure water.
(§3) For bacteria strains, a few colonies of each strain were collected with a sterile swab and used to make a McFarland 0.5 standard solution (approximately 1×10^8 CFU/mL) in sterile PBS. The McFarland was then diluted 1:180 in Cation Adjusted Muller-Hinton Broth (CAMHB) for S. aureus and P. aeruginosa, and in CAVHIIB+5% defibrinated sheep blood for S. pyogenes. 90 μL of this inoculum was combined with 10 μL of the 10× test article in a 96-well plate for a final concentration of 1×.
(§4) All bacterial-strain MIC 96-well plates were incubated at 35±2° C. for 18 to 20 hours, while all Candida MIC 96-well plates were incubated at 35±2° C. for 24 to 48 hours. C. herbarum MIC 96-well plates were incubated at 25±2° C. for 3 to 5 days, until growth was visible in the growth control wells. After incubation, the 96-well plates were examined visually and on a spectrophotometer at absorbance OD650. […]

[3] = system: Pseudomonas aeruginosa Eurofins 1674623; assay: MIC microdilution assay (Example 32); assay type: cell-based; conditions: P. aeruginosa Eurofins 1674623; CAMHB; 35±2° C. 18 to 20 hours; two values given
Experimental: (§5) Strain IDs starting with “ATCC” were acquired from the American Type Culture Collection (Manassas, VA), strain IDs starting with “Eurofins” were acquired from Eurofins (Herndon, VA), while strain IDs starting with “CDC” were acquired from the Centers for Disease Control and Prevention (Atlanta, GA). All strains were maintained as −80° C. frozen glycerol stocks. S. aureus and P. aeruginosa were grown overnight on Tryptic Soy Agar (TSA) plates at 35±2° C., ambient atmosphere, while S. pyogenes was grown overnight on TSA+5% defibrinated sheep blood at 35±2° C., 5% CO2. C. jejuni was grown for 48 hours on TSA+5% defibrinated sheep blood at 35±2° C., in a microaerophilic environment generated by CampyGen sachet. All fungal species (i.e. C. albicans and C. auris) were grown overnight on Sabouraud Dextrose Agar (SDA) plates at 35±2° C., ambient atmosphere.
as §2, with “Test article” for “Test articles”, “Compound 1” for “Compound 2”, “(batch #7G30A9.203) was” for “(batch #2G13A0.368) and Compound 23 (batch #2G17A0.372) were received and”
as §3, with “aeruginosa. S. pyogenes McFarland was diluted 1:180” for “aeruginosa, and”, “CAMHB+5%” for “CAVHIIB+5%”, “blood, while C. jejuni McFarland was diluted 1:180 in CAMHB+5% laked horse blood.” for “blood for S. pyogenes.”
(§6) Except for C. jejuni, all bacterial-strain MIC 96-well plates were incubated at 35±2° C. for 18 to 20 hours, ambient atmosphere. C. jejuni was incubated at 35±2° C. for 48 hours, under microaerophilic condition. All Candida MIC 96-well plates were incubated at 35±2° C. for 24 to 48 hours, ambient atmosphere, until growth in control wells were observed. After incubation, the 96-well plates were examined visually and on a spectrophotometer at absorbance OD650. MIC is defined as the lowest concentration of a compound in which no visible growth is observed.

[4] = system: Streptococcus pyogenes Eurofins 2065755; assay: MIC microdilution assay (Example 32); assay type: cell-based; conditions: S. pyogenes Eurofins 2065755; CAMHB+5% defibrinated sheep blood; 35±2° C. 18 to 20 hours; two values given
Experimental: as §5
as §2, with “Test article” for “Test articles”, “Compound 1” for “Compound 2”, “(batch #7G30A9.203) was” for “(batch #2G13A0.368) and Compound 23 (batch #2G17A0.372) were received and”
as §3, with “aeruginosa. S. pyogenes McFarland was diluted 1:180” for “aeruginosa, and”, “CAMHB+5%” for “CAVHIIB+5%”, “blood, while C. jejuni McFarland was diluted 1:180 in CAMHB+5% laked horse blood.” for “blood for S. pyogenes.”
as §6

[5] = system: Pseudomonas aeruginosa ATCC 27853; assay: MIC microdilution assay (Example 32); assay type: cell-based; conditions: P. aeruginosa ATCC 27853 (quality control); CAMHB; 35±2° C. 18 to 20 hours; two values given
Experimental: as §5
as §2, with “Test article” for “Test articles”, “Compound 1” for “Compound 2”, “(batch #7G30A9.203) was” for “(batch #2G13A0.368) and Compound 23 (batch #2G17A0.372) were received and”
as §3, with “aeruginosa. S. pyogenes McFarland was diluted 1:180” for “aeruginosa, and”, “CAMHB+5%” for “CAVHIIB+5%”, “blood, while C. jejuni McFarland was diluted 1:180 in CAMHB+5% laked horse blood.” for “blood for S. pyogenes.”
as §6

[6] = system: Acinetobacter baumannii Eurofins 1674627; assay: MIC microdilution assay (Example 32); assay type: cell-based; conditions: A. baumannii Eurofins 1674627; 35±2° C. 18 to 20 hours; two values given
Experimental: as §5
as §2, with “Test article” for “Test articles”, “Compound 1” for “Compound 2”, “(batch #7G30A9.203) was” for “(batch #2G13A0.368) and Compound 23 (batch #2G17A0.372) were received and”
as §3, with “aeruginosa. S. pyogenes McFarland was diluted 1:180” for “aeruginosa, and”, “CAMHB+5%” for “CAVHIIB+5%”, “blood, while C. jejuni McFarland was diluted 1:180 in CAMHB+5% laked horse blood.” for “blood for S. pyogenes.”
as §6

[7] = system: Campylobacter jejuni CDC 0413; assay: MIC microdilution assay (Example 32); assay type: cell-based; conditions: C. jejuni CDC 0413; CAMHB+5% laked horse blood; 35±2° C. 48 hours, microaerophilic; two values given
Experimental: as §5
as §2, with “Test article” for “Test articles”, “Compound 1” for “Compound 2”, “(batch #7G30A9.203) was” for “(batch #2G13A0.368) and Compound 23 (batch #2G17A0.372) were received and”
as §3, with “aeruginosa. S. pyogenes McFarland was diluted 1:180” for “aeruginosa, and”, “CAMHB+5%” for “CAVHIIB+5%”, “blood, while C. jejuni McFarland was diluted 1:180 in CAMHB+5% laked horse blood.” for “blood for S. pyogenes.”
as §6

[8] = system: Pseudomonas aeruginosa CDC 0248; assay: MIC microdilution assay (Example 32); assay type: cell-based; conditions: P. aeruginosa CDC 0248; CAMHB; 35±2° C. 18 to 20 hours; two values given
Experimental: as §5
as §2, with “Test article” for “Test articles”, “Compound 1” for “Compound 2”, “(batch #7G30A9.203) was” for “(batch #2G13A0.368) and Compound 23 (batch #2G17A0.372) were received and”
as §3, with “aeruginosa. S. pyogenes McFarland was diluted 1:180” for “aeruginosa, and”, “CAMHB+5%” for “CAVHIIB+5%”, “blood, while C. jejuni McFarland was diluted 1:180 in CAMHB+5% laked horse blood.” for “blood for S. pyogenes.”
as §6

[9] = system: Candida albicans ATCC 90028; assay: MIC microdilution assay (Example 32); assay type: cell-based; conditions: C. albicans ATCC 90028 (quality control); RPMI media; 35±2° C. 24 to 48 hours; two values given
Experimental: as §5
as §2, with “Test article” for “Test articles”, “Compound 1” for “Compound 2”, “(batch #7G30A9.203) was” for “(batch #2G13A0.368) and Compound 23 (batch #2G17A0.372) were received and”
as §3, with “aeruginosa. S. pyogenes McFarland was diluted 1:180” for “aeruginosa, and”, “CAMHB+5%” for “CAVHIIB+5%”, “blood, while C. jejuni McFarland was diluted 1:180 in CAMHB+5% laked horse blood.” for “blood for S. pyogenes.”
(§7) For the yeasts C. albicans and C. auris, a McFarland 0.5 standard solution in sterile PBS was similarly prepared (approximately 1×10^6 CFU/mL) and was subsequently diluted 1:180 in RPMI 1640 media buffered with 0.165 M MOPS at pH 7.0 (herein referred to as “RPMI media”). 90 μL of the Candida inoculum was combined with 10 μL of the 10× test article in a 96-well plate for a final concentration of 1×.
as §6

Candida auris CDC 0385 = assay: MIC microdilution assay (Example 32); assay type: cell-based; conditions: C. auris CDC 0385; RPMI media; 35±2° C. 24 to 48 hours; two values given
Experimental: as §5
as §2, with “Test article” for “Test articles”, “Compound 1” for “Compound 2”, “(batch #7G30A9.203) was” for “(batch #2G13A0.368) and Compound 23 (batch #2G17A0.372) were received and”
as §3, with “aeruginosa. S. pyogenes McFarland was diluted 1:180” for “aeruginosa, and”, “CAMHB+5%” for “CAVHIIB+5%”, “blood, while C. jejuni McFarland was diluted 1:180 in CAMHB+5% laked horse blood.” for “blood for S. pyogenes.”
as §7, §6

S. pyogenes ATCC 51339 = assay: MIC microdilution assay; assay type: cell-based, Steptococcus pyogenes; conditions: S. pyogenes ATCC 51339; broth +5% defibrinated sheep blood; 35±2° C. 18 to 20 hours; two values given
Experimental: as §1, §2, §3, §4

P. aeruginosa ATCC 27853 = assay: MIC microdilution assay; assay type: cell-based, Pseudomonas aeruginosa; conditions: CAMHB, 35±2° C. 18 to 20 hours, two values given
Experimental: as §1, §2, §3, §4

[10] = system: Candida albicans ATCC 90028; assay: MIC microdilution assay; assay type: cell-based; conditions: C. albicans ATCC 90028; RPMI media; 35±2° C. 24 to 48 hours; two values given
Experimental: as §1, §2, §3, §7
(§8) All bacterial-strain MIC 96-well plates were incubated at 35±2° C. for 18 to 20 hours, while all Candida MIC 96-well plates were incubated at 35±2° C. for 24 to 48 hours. C. herbarum MIC 96-well plates were incubated at 25±2° C. for 3 to 5 days, until growth was visible in the growth control wells. After incubation, the 96-well plates were examined visually and on a spectrophotometer at absorbance OD650. MIC is defined as the lowest concentration of a compound in which no visible growth is observed.

Candida auris CDC 0381 = assay: MIC microdilution assay; assay type: cell-based; conditions: C. auris CDC 0381; RPMI media; 35±2° C. 24 to 48 hours; two values given
Experimental: as §1, §2, §3, §7, §8

MIC [1]: ≤0.03 µg/mL
MIC [2]: >32 µg/mL
MIC [3]: >32 µg/mL
MIC [4]: >32 µg/mL
MIC [5]: >32 µg/mL
MIC [6]: >32 µg/mL
MIC [7]: >32 µg/mL
MIC [8]: >32 µg/mL
MIC [9]: 1 µg/mL (≈ 1.08 µM)
MIC (Candida auris CDC 0385): 4 µg/mL (≈ 4.33 µM)
MIC (S. pyogenes ATCC 51339): >32 µg/mL
MIC (P. aeruginosa ATCC 27853): >32 µg/mL
MIC [10]: 2 µg/mL (≈ 2.16 µM)
MIC (Candida auris CDC 0381): 1 µg/mL (≈ 1.08 µM)
SMILES: C[C@@H]1[C@H](O)[C@@H](C)/C=C/C=C/C=C/C=C/C=C/C=C/C=C/[C@H](O[C@@H]2O[C@H](C)[C@@H](O)[C@H](N)[C@@H]2O)C[C@@H]2O[C@](O)(C[C@@H](O)C[C@@H](O)[C@H](O)CC[C@@H](O)C[C@@H](O)CC(=O)O[C@H]1C)C[C@H](O)[C@H]2C(=O)O [Amphotericin B]
